For series [1], the system named is HIV-1 (IIIB isolate). The series is described as follows: HIV-1 inhibition (p24 antigen ELISA) in infected H9 lymphocytes. The series is classed as cell-based. Conditions: for EC50: Human immunodeficiency virus 1, IIIB, Lymphocyte, 96 h, read-out: Anti-HIV Activity EC50; for Therapeutic Index (TI = IC50/EC50): H9 cells; for anti-HIV activity, result in words: EC50 compared with related compounds. How it is done:
(§1) Aliquot of this cell line were only used in experiments when in log-phase growth. Test samples were first dissolved in dimethyl sulfoxide. The following final drug concentrations were routinely used for screening: 100, 20, 4 and 0.8 μg/ml. For active agents, additional dilutions were prepared for subsequent testing so that an accurate EC50 value (defined below) could be achieved. […] The appropriate amount of virus for a multiplicity of infection (moi) between 0.1 and 0.01 Infectious Units/cell was added to the first aliquot of H9 cells. The other aliquot only received culture medium, and these mock-infected cells were used for toxicity determinations (IC50, defined below). After a 4 h incubation at 37° C. and 5% CO2, both cell populations were washed three times with fresh medium and then added to the appropriate wells of a 24 well-plate containing the various concentrations of the test drug or culture medium (positive infected control/negative drug control). In addition, AZT was also assayed during each experiment as a positive drug control. The plates were incubated at 37° C. and 5% CO2 for 4 days. Cell-free supernatants were collected on Day 4 for use in a p24 antigen ELISA assay. P24 antigen is a core protein of HIV and therefore is an indirect measure of virus present in the supernatants. Toxicity was determined by performing cell counts by a Coulter Counter on the mock-infected H9 cells which had either received culture medium (no toxicity), test sample, or AZT.
Compounds of the present invention were assayed for anti-HIV activity according to the following assay procedures. […] The cell lines were used in experiments only when in the logarithmic phase of growth, whereas uninfected peripheral blood mononuclear cells (PBMCs) were first stimulated with PHA (1 μg/mL) for three days. […] The cell lines and PBMCs were washed thoroughly to remove unadsorbed virions and resuspended at 4×10^5 cells/ml in complete medium or complete medium with 10% v/v interleukin 2 (IL-2) , respectively. One ml. aliquots were placed into wells of 24-well culture plates containing an equal volume of test compounds (diluted in the appropriate culture medium). The toxicity of each compound was assessed by determining the number of compound-exposed uninfected cells that remained after four days at 37° C. and 5% CO2. A p24 antigen ELISA assay was used to determine the level of virus released in the medium of the HIV-infected cultures. The p24 antigen assay used a HIV-1 anti-p24 specific monoclonal antibody as the capture antibody coated onto 96-well plates. […] P24 in the culture medium was quantitated against a standard curve containing known amounts of p24. The effective (EC50) and inhibitory (IC50) concentrations for anti-HIV activity and cytotoxicity, respectively, were determined.
For orientation: In an ELISA, binding on a coated surface is turned into a signal by an enzyme label.

A short description of series [2]: Cytotoxicity: cell counts of mock-infected H9 cells. The conditions noted are these: human. It counts as cell-based. As to the method:
as §1, with “The biological evaluation of HIV-1 inhibition was carried out according to established protocols, (Kashiwada, Y., et al., J Med Chem. 39:1016-1017 (1996); Hashimoto, F., et al., Bioorg. & Med Chem. 5:2133-2143 (1997)). The T cell line, H9, was maintained in continuous culture with complete medium (RPMI 1640 with 10% fetal calf serum supplemented with L-glutamine at 5% CO2 and 37° C.). Aliquot” for “Aliquot”, “achieved. As the test samples were being prepared, an aliquot of the H9 cell line was infected with HIV-1 (IIIB isolate) while another aliquot was mock-infected with complete medium.” for “achieved.”
Compounds of the present invention were assayed for anti-HIV activity according to the following assay procedures. The T cell line, H9, and the promonocytic cell line, U937, were maintained separately in continuous culture with complete medium (RPMI 1640 with 10% fetal calf serum) at 5% CO2 and 37° C. The cell lines were used in experiments only when in the logarithmic phase of growth, whereas uninfected peripheral blood mononuclear cells (PBMCs) were first stimulated with PHA (1 μg/mL) for three days. All cell targets were incubated with HIV-1 (IIIB isolate, TCID50 10^4 IU/ml, at a multiplicity of infection of […] IU/cell) for one hour at 37° C. and 5% CO2. The cell lines and PBMCs were washed thoroughly to remove unadsorbed virions and resuspended at 4×10^5 cells/ml in complete medium or complete medium with 10% v/v interleukin 2 (IL-2) , respectively. One ml. aliquots were placed into wells of 24-well culture plates containing an equal volume of test compounds (diluted in the appropriate culture medium). The toxicity of each compound was assessed by determining the number of compound-exposed uninfected cells that remained after four days at 37° C. and 5% CO2. A p24 antigen ELISA assay was used to determine the level of virus released in the medium of the HIV-infected cultures. The p24 antigen assay used a HIV-1 anti-p24 specific monoclonal antibody as the capture antibody coated onto 96-well plates. Following a sample incubation period, rabbit serum containing antibodies for HIV-1 p24 was used to tag any p24 captured onto the microtiterwell surface. Peroxidase conjugated goat anti-rabbit serum was then used to tag HIV-1 p24 specific rabbit antibodies that had complexed with captured p24. […] The cutoff for the p24 ELISA assay was 12.5 pg/ml. P24 in the culture medium was quantitated against a standard curve containing known amounts of p24. […]

The subject of series [3] is HIV-1. The conditions noted are these: H9 lymphocyte cells, Fujioka et al. 1994, cited from earlier work.
The mark [4] stands for this setting: read-out: EC50, inhibitory activity against HIV-1 replication.
The mark [5] stands for this setting: average of at least two experiments.

Structures are written as SMILES. “Also recorded” adds a separate entry of the source. Read-outs that look alike come from different tables or passages of the source.

For the compound `C=C(C)[C@@H]1CC[C@]2(C(=O)O)CC[C@]3(C)[C@H](CC[C@@H]4[C@@]5(C)CC[C@H](O)C(C)(C)[C@@H]5CC[C@]43C)[C@@H]12` [Compound 1, betulinic acid, reference compound], the EC50 (commonly the concentration at which the effect is half-maximal) is 1.4 µM in series [1] (H9 lymphocytes, p24 ELISA Day 4, average of at least two experiments) and 1.4 µM in series [3] (setting [4]). For the same compound, the CC50 at 96 h in series [2] (toxic to 50% of mock-infected H9 cells, 4 days, average of at least two experiments, read-out: Cytotoxicity IC50) is 13 µM.
As to `CC(C)[C@@H]1CC[C@]2(COC(=O)CC3(CC(=O)O)CCCC3)CC[C@]3(C)[C@H](CC[C@@H]4[C@@]5(C)CC[C@H](OC(=O)CC6(CC(=O)O)CCCC6)C(C)(C)[C@@H]5CC[C@]43C)[C@@H]12` [Compound 10, 3,28-Di-O-(3',3'-tetramethyleneglutaryl)-dihydrobetulin], the “Therapeutic Index (TI = IC50/EC50)” value in series [1] (setting [5]) is 37. The “anti-HIV activity, result in words” value in series [1] (H-9 lymphocytes) was “less inhibition than the unsaturated 5 and 6; also recorded: least activity”. In series [1] (H-9 lymphocytes, compared with related compounds), the “TI, result in words” value is reported as “lowest TI values”. In addition, the EC50 in series [1] amounted to 0.58 µM. The compound further gave a CC50 at 96 h in series [2] (h9 cells) of 21.6 µM.
With `C=C(C)[C@@H]1CC[C@]2(COC(=O)CC(C)(C)CC(=O)O)CC[C@]3(C)[C@H](CC[C@@H]4[C@@]5(C)CC[C@H](O)C(C)(C)[C@@H]5CC[C@]43C)[C@@H]12` [Compound 11, 28-O-(3',3'-Dimethylglutaryl)-betulin], the “Therapeutic Index (TI = IC50/EC50)” value in series [1] (setting [5]) was 7.8. Moreover, the “anti-HIV activity, result in words” value in series [1] (H-9 lymphocytes) was “much less potent than 4”. Besides, in series [1], the half-maximal effective concentration (EC50) was determined as 3.6 µM. In addition, the “fold more potent than compound 3” value in series [1] (compared with compound 3 (betulin)) turned out to be 6 fold. In series [2] (h9 cells), the CC50 at 96 h stood at 28.2 µM.
Turning to `C=C(C)[C@@H]1CC[C@]2(COC(=O)CC(C)(C)CC(=O)O)CC[C@]3(C)[C@H](CC[C@@H]4[C@@]5(C)CCC(=O)C(C)(C)[C@@H]5CC[C@]43C)[C@@H]12` [Compound 12, 3-Deoxy-3-oxo-28-O-(3',3'-dimethylglutaryl)-betulin], in series [1] (setting [5]), the “Therapeutic Index (TI = IC50/EC50)” value was 2.9. Further, the “anti-HIV activity, result in words” value in series [1] (H-9 lymphocytes) is “decreased activity further”. In addition, the EC50 in series [1] worked out at 10 µM. The CC50 at 96 h in series [2] (h9 cells) was found to be 29.2 µM.
`C=C(C)[C@@H]1CC[C@]2(COC(=O)CC(C)(C)CC(=O)O)CC[C@]3(C)[C@H](CC[C@@H]4[C@@]5(C)CC=CC(C)(C)[C@@H]5CC[C@]43C)[C@@H]12` [Compound 14]: the “Therapeutic Index (TI = IC50/EC50)” value in series [1] (setting [5]) is given as 5.2. Moreover, the “anti-HIV activity, result in words” value in series [1] (H-9 lymphocytes) is “increased anti-HIV activity”. Moreover, the concentration for a half-maximal effect (EC50) in series [1] turned out to be 5.4 µM. The compound further displayed a CC50 at 96 h in series [2] (h9 cells) of 28.3 µM.
For the compound `CC(C)[C@@H]1CC[C@]2(C(=O)O)CC[C@]3(C)[C@H](CC[C@@H]4[C@@]5(C)CC[C@H](O)C(C)(C)[C@@H]5CC[C@]43C)[C@@H]12` [dihydrobetulinic acid], the T.I. in series [3] was 14. The concentration for a half-maximal effect (EC50) in series [3] (read-out: EC50, anti-HIV activity (unit inferred)) was 0.9 µM.
Regarding `CC(=O)[C@@H]1CC[C@]2(C(=O)O)CC[C@]3(C)[C@H](CC[C@@H]4[C@@]5(C)CC[C@H](O)C(C)(C)[C@@H]5CC[C@]43C)[C@@H]12` [platanic acid], the T.I. in series [3] is 14. In addition, the EC50 in series [3] (setting [4]) is 6.5 µM.

These data come from patent publication US6172110A, “Acylated betulin and dihydrobetulin derivatives, preparation thereof and use thereof” (The University of North Carolina at Chapel Hill, priority 1999, dated 2001).
